Reference: publication PMC4850841 (Journal of medicinal chemistry, 2013)
Where two headings read alike, the source gives them in different places.

How the values were obtained:
[1] = molecular target: GluK2 (Rattus norvegicus, UniProt P42260); assay: Two electrode voltage clamp recordings, Xenopus laevis oocytes; assay type: cell-based; conditions: co-applied with 100 µM glutamate
[2] = tested on: GluN2C/D-containing NMDA receptors; conditions: cited from earlier work
[3] = tested on: GluN2C/D-containing NMDA receptors; assay: Potentiation of NMDA receptors, results stated jointly for both subtypes; assay type: cell-based, rat; conditions: read-out: EC50, GluN2C/GluN2D stated jointly; maximally effective concentrations of glutamate and glycine
[4] = molecular target: GluA1 (Rattus norvegicus, UniProt P19490); assay: Two electrode voltage clamp recordings, Xenopus laevis oocytes; assay type: cell-based; conditions: co-applied with 100 µM glutamate
GluA1, sequence (P19490 19-907): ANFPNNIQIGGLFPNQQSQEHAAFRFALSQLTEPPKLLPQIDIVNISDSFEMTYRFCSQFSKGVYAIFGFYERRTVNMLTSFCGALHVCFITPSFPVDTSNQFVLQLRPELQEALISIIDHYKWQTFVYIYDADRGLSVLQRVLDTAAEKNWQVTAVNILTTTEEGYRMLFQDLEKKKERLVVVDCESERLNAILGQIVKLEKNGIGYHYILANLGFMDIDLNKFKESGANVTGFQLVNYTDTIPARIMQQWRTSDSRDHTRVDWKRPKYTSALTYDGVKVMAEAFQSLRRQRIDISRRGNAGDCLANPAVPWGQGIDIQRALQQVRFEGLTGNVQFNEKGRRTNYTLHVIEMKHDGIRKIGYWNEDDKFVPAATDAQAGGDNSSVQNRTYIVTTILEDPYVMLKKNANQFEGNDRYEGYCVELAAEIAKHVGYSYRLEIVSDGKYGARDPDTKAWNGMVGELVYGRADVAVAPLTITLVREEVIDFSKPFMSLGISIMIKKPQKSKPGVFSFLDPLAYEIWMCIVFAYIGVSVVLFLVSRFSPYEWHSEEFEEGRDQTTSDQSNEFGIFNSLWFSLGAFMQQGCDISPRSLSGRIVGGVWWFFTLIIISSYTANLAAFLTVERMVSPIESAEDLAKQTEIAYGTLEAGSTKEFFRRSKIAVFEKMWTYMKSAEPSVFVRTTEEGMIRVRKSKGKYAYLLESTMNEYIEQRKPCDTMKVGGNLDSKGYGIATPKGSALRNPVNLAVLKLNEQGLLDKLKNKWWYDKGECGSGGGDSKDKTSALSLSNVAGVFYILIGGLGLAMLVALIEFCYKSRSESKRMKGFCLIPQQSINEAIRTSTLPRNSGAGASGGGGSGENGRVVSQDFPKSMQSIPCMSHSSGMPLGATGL

[5] = Stability of potentiator activity of compound solution; assay type: physicochemical
[6] = molecular target: GluN1/GluN2C (Rattus norvegicus, UniProt P35439+Q00961); assay: Two electrode voltage clamp recordings, Xenopus laevis oocytes; assay type: cell-based
GluN1/GluN2C, sequence (Q00961 20-1237, other chains not shown): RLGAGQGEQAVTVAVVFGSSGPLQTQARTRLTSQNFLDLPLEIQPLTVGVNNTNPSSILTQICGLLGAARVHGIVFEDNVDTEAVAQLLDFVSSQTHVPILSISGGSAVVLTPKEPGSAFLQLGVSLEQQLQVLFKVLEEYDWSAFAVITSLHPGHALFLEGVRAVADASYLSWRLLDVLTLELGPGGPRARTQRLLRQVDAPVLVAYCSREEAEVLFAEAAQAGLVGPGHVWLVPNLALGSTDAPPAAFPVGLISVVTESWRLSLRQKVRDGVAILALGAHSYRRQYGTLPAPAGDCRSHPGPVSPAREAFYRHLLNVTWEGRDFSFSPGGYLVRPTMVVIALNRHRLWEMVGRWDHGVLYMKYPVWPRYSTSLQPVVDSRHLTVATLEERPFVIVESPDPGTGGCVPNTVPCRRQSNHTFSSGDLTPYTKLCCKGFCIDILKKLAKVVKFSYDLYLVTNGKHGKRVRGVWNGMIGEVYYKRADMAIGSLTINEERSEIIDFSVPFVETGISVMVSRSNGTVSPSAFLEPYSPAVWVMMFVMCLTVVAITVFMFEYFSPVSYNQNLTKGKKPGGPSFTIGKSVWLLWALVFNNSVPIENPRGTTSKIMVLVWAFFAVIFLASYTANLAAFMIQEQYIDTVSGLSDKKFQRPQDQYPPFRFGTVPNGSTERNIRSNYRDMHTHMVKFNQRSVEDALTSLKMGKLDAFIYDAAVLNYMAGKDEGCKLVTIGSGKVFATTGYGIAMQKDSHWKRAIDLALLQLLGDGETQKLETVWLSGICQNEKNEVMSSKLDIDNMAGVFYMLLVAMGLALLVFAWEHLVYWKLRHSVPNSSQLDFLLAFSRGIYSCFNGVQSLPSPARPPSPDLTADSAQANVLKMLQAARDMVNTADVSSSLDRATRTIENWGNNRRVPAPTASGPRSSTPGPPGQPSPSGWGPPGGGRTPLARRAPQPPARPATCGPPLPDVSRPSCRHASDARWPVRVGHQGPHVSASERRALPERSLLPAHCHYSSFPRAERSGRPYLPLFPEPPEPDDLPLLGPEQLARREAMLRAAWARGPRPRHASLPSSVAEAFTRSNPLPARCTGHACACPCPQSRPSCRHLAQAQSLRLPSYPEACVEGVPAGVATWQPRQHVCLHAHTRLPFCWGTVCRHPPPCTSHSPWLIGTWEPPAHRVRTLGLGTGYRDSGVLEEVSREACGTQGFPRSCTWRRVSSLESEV

[7] = tested on: sigma receptor σ2; assay type: binding; conditions: 5 µM compound 83; n=4
[8] = tested on: peripheral benzodiazepine site; assay type: binding; conditions: 5 µM compound 83; n=4
[9] = tested on: GABA, glycine, serotonin, nicotinic acetylcholine, AMPA, kainate, and purinergic receptors; assay type: cell-based
[10] = tested on: sigma receptor σ1; assay type: binding; conditions: 5 µM compound 83; n=4
[11] = tested on: brain benzodiazepine site; assay type: binding; conditions: 5 µM compound 83; n=4
[12] = molecular target: κ opioid receptors (Homo sapiens, UniProt P41145); assay type: binding; conditions: 5 µM compound 83
κ opioid receptors, sequence (P41145 whole entry): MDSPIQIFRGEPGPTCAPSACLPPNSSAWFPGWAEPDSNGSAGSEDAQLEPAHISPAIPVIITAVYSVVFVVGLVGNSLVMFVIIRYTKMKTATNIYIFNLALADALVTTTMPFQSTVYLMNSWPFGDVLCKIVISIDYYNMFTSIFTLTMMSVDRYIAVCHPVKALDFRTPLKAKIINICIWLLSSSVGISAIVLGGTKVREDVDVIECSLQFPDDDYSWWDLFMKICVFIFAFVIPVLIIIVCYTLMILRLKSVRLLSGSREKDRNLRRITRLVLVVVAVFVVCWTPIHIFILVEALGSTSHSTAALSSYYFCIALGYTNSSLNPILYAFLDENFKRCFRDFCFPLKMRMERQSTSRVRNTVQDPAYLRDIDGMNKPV

GluK2, sequence (P42260 32-908): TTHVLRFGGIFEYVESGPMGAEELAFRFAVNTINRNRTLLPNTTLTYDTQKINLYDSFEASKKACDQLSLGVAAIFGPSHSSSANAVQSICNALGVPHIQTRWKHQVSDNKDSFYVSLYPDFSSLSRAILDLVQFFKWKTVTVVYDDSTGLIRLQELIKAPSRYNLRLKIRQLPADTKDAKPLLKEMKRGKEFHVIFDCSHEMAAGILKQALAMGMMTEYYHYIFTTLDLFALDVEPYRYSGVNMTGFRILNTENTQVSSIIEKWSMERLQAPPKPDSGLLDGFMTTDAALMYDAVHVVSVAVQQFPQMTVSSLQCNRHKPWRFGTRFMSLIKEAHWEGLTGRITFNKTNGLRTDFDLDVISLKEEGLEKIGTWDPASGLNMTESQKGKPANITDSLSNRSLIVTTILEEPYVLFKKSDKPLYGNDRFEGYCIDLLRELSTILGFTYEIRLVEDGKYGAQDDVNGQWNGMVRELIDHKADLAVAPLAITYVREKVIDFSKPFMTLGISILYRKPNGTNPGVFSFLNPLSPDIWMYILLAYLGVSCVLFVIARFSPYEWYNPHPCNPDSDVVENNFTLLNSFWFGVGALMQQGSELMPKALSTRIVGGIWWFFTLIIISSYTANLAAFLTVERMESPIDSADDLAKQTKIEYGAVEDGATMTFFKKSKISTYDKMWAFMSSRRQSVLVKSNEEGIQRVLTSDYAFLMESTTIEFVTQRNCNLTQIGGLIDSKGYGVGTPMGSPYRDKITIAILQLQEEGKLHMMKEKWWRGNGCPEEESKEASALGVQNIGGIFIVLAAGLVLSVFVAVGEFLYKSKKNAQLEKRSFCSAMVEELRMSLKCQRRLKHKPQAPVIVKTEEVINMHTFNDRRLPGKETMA

| effect on GluK2-mediated currents [1] | EC50 [3] [µM] | effect on homomeric GluA1 responses [4] | activity of solution after 24 hours ([5]; 24 hours after making the solution) | activity (potency and efficacy) retained without loss until ([5]; compound solutions tested on GluN1/GluN2C in BHK cells at different time points) [h] | EC50 [6] [µM] | inhibition of ligand binding [7] | inhibition of ligand binding [8] | inhibition of ligand binding [10] | inhibition of ligand binding [11] | initial screen at κ opioid receptors [12] | Structure (SMILES) | enhancement of receptor responses [2] | EC50 ([2]; read-out: reported EC50) [µM] | selectivity for GluN2C or GluN2D compared to these receptors [9] | inhibition of off-target receptors ([9]; 3 µM compound 83) | potentiation of off-target receptors ([9]; 3 µM compound 83) [%] |
| --- | --- | --- | --- | --- | --- | --- | --- | --- | --- | --- | --- | --- | --- | --- | --- | --- |
| no effect | 4.6 to 5 | no effects | no activity | 6 | 4.6 |  |  |  |  |  | COc1ccc(OCC2c3cc(OC)c(OC)cc3CCN2C(=O)c2cccc(Cl)c2)cc1 (centres unmarked) [compound 2] | less than 2 fold | 3 |  |  |  |
|  | 0.3 to 0.4 |  |  |  |  | less than 50% | less than 50% | less than 50% | less than 50% | significant inhibition | COc1ccc(OCC2c3ccc(OCc4ccccc4)cc3CCN2C(=O)c2cccc(Br)c2)cc1 (centres unmarked) [compound 83, (6-(benzyloxy)-1-((4-methoxyphenoxy)methyl)-3,4-dihydroisoquinolin-2(1H)-yl)(3-bromophenyl)methanone] |  |  | approximately 100 fold | less than 10% | < 5 |
